Values of other authors, collected in US20140294799A1, “USE OF COMPOSITIONS HAVING A LOW POLYAMINE CONTENT IN THE PREVENTION OR TREATMENT OF ADVERSE EFFECTS LINKED TO CANCER TREATMENT” (NUTRIALYS MEDICAL NUTRITION SA, priority 2011, published 2014).

System: skin of irradiated animals
Details: topical application to the skin of irradiated animals

Compound	effect on alopecia	effect on dermatitis
NCCCNCCCCNCCCN [spermine]	effective in the treatment of alopecia	
N=C(N)NCCCCN [agmatine]		reduce dermatitis
